# Experimental data reported in paper PMC11393688, “Design and synthesis of new 1,2,4-oxadiazole/quinazoline-4-one hybrids with antiproliferative activity as multitargeted inhibitors” (Frontiers in Chemistry, 2024).
# Legend:
# [1] = molecular target: T1, BRAF^V600E (Homo sapiens, UniProt P15056, V600E); assay: BRAF^V600E kinase inhibitory assay; assay type: biochemical, Mouse; details: read-out: BRAF^V600E inhibition IC50 ± SEM
# T1 construct: Mouse full-length GST-tagged BRAFV600E; GST; purchased Invitrogen PV3849
# Method: Refer to Supplementary Appendix A for more details. […]
# 4.2.1.4. BRAF kinase assay […]
# against BRAF. Mouse full-length GST-tagged BRAFV600E (7.5 ng, Invitrogen, PV3849) was pre-incubated with drug (1 µL) and assay dilution buffer (4 µL) for 60 min at 25 °C. In assay dilution buffer, a solution (5 µL) containing MgCl2 (30 mM), ATP (200 µM), recombinant human full length (200 ng) […] N-terminal His-tagged MEK1 (Invitrogen) was added to start the assay, subsequent to incubation for 25 min at 25 °C. The assay was stopped using 5X protein denaturing buffer (LDS) solution (5 µL). To further denature the protein, heat (70° C) was applied for 5 min.
# 10 µL of each reaction was loaded into the precast plates and electrophoresis was allowed to proceed. After completion of electrophoresis, the front part of the precast gel plate (holding hot ATP) was cut and afterwards cast-off. The dried gel was developed using a phosphor screen. A […]
# served as positive control. […]
# (FITC) and propidium iodide (PI) staining kit (BD Pharmingen, San Diego, USA). […]
# 4.3. Statistical analysis
# Computerized Prism 5 program was used to statistically analyzed data using one-way ANOVA test followed by Tukey’s as post ANOVA for multiple comparison at P ≤.05. Data were presented
# [2] = tested on: A-549 cells; assay: Cell cycle analysis by flow cytometry; assay type: cell-based, human; details: A-549, IC50 concentration, 24 h
# From the text: Compound 9b was investigated for its effects on cell cycle progression and apoptosis induction in A-549 cells. […] The cell line was labeled with PI/Annexin V, and flow cytometry was done with a BD FASC Caliber ([El-Sherief et al., 2018]).
# Compound 9b was investigated for its effects on cell cycle progression and apoptosis induction in A-549 cells. […] The cell line was labeled with PI/Annexin V, and flow cytometry was done with a BD FASC Caliber ([El-Sherief et al., 2018]). See Supplementary Appendix A for more details.
# [3] = tested on: colon cancer (HT-29) cell line; assay: Antiproliferative MTT assay, HT-29; assay type: cell-based; details: Homo sapiens, HT-29 colon cancer cells, read-out: Antiproliferative activity IC50 ± SEM HT-29
# T1 sequence (P15056 2-766 V600E limits assumed): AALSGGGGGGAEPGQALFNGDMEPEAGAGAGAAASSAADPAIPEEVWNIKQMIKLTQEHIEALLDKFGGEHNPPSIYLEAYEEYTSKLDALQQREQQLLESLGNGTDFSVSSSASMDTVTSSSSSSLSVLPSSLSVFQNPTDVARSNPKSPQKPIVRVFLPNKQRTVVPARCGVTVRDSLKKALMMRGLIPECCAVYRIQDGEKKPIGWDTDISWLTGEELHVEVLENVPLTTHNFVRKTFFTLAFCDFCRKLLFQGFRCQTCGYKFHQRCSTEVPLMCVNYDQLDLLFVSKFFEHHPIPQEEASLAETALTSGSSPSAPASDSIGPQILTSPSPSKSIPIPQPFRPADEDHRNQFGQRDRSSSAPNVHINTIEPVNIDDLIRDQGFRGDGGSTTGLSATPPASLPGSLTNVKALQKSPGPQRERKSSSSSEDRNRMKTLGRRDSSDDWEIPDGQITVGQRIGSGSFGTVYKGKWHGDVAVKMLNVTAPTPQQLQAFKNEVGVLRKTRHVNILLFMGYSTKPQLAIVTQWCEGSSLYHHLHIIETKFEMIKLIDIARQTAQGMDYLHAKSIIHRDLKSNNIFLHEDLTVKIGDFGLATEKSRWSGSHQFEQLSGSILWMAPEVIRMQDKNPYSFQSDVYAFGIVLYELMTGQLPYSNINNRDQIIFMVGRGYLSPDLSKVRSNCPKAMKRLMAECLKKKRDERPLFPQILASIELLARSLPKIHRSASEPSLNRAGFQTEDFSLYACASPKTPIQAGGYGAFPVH
compound,measurement,setting,value
"O=c1c2ccccc2nc(SCc2nc(-c3ccc(Cl)cc3)no2)n1-c1ccccc1 [Compound 9b, 2-((3-(4-Chlorophenyl)-1,2,4-oxadiazol-5-yl)methylthio)-3 phenylquinazolin-4(3H)-one]",IC50,[1],48 ± 4 nM
same,Effect on cell cycle,[2],cell cycle arrest at the G2/M transition
same,IC50,[3],24 ± 2 nM
